According to patent US20200216441A1, “PESTICIDALLY ACTIVE HETEROCYCLIC DERIVATIVES WITH SULFUR CONTAINING SUBSTITUENTS” (SYNGENTA PARTICIPATIONS AG, priority 2017, published 2020):

Columns and labels:
[1] = tested on: Plutella xylostella (Diamond Back Moth); assay: whole plant or invertebrate; type: in vivo; details: 120 h, application rate of 200 ppm, L2 larvae on treated artificial diet, 5 days after infestation, read-out: effect in at least one of the two categories (mortality or growth inhibition)
[2] = tested on: Myzus persicae (Green Peach Aphid); assay: whole plant or invertebrate; details: foliar, 144 h
[3] = tested on: Myzus persicae (Green Peach Aphid); assay: whole plant or invertebrate; type: in vivo; details: 144 h, test rate of 24 ppm, systemic, roots of infested pea seedlings in test solution, 6 days
[4] = tested on: Euschistus heros (Neotropical Brown Stink Bug); assay: whole plant or invertebrate; type: in vivo; details: 120 h, application rate of 200 ppm, N2 nymphs on sprayed soybean leaves, 5 days after infestation, read-out: effect in at least one of the two categories (mortality or growth inhibition)
[5] = tested on: Diabrotica Balteata (Corn Root Worm); assay: Diabrotica balteata (Corn Root Worm); details: in Zea mays, 96 h, read-out: effect in at least one of the two categories (mortality or growth inhibition)

Structure (SMILES)	percent effect (mortality or growth inhibition) at 200 ppm [1] [%]	mortality at 200 ppm [2] [%]	mortality at 24 ppm [3] [%]	percent effect (mortality or growth inhibition) at 200 ppm [4] [%]	mortality at 200 ppm [5] [%]
CCS(=O)(=O)c1cc(OS(C)(=O)=O)cnc1-c1nc2cc(C(F)(F)F)ncc2n1C [Compound P93, [5-ethylsulfonyl-6-[3-methyl-6-(trifluoromethyl)imidazo[4,5-c]pyridin-2-yl]-3-pyridyl] methanesulfonate]	≥ 80	≥ 80			
CCS(=O)(=O)c1cc(OC(C)(C)COC)cnc1-c1nc2cc(C(F)(F)F)ncc2n1C [Compound P48, 2-[3-ethylsulfonyl-5-(2-methoxy-1,1-dimethyl-ethoxy)-2-pyridyl]-3-methyl-6-(trifluoromethyl)imidazo[4,5-c]pyridine]	≥ 80	≥ 80	≥ 80		
CCSc1cc(OC(C)(C)C(N)=O)cnc1-c1nc2cc(C(F)(F)F)ncc2n1C [Compound P77, 2-[[5-ethylsulfanyl-6-[3-methyl-6-(trifluoromethyl)imidazo[4,5-c]pyridin-2-yl]-3-pyridyl]oxy]-2-methyl-propanamide]				≥ 80	
CCS(=O)(=O)c1cc(OCCS(C)(=O)=O)cnc1-c1nc2cc(C(F)(F)F)ncc2n1C [Compound P7, 2-[3-ethylsulfonyl-5-(2-methylsulfonylethoxy)-2-pyridyl]-3-methyl-6-(trifluoromethyl)imidazo[4,5-c]pyridine]		≥ 80	≥ 80	≥ 80	
CCSc1cc(OCC(C)(C)C)cnc1-c1nc2cc(C(F)(F)F)ncc2n1C [Compound P25, 2-[5-(2,2-dimethylpropoxy)-3-ethylsulfanyl-2-pyridyl]-3-methyl-6-(trifluoromethyl)imidazo[4,5-c]pyridine]	≥ 80	≥ 80			
CCS(=O)(=O)c1cc(OCc2cc(C3CC3)no2)cnc1-c1nc2cc(C(F)(F)F)ncc2n1C [Compound P83, 3-cyclopropyl-5-[[5-ethylsulfonyl-6-[3-methyl-6-(trifluoromethyl)imidazo[4,5-c]pyridin-2-yl]-3-pyridyl]oxymethyl]isoxazole]	≥ 80			≥ 80	≥ 80
CCSc1cc(OCC2CC2)cnc1-c1nc2cc(C(F)(F)F)ncc2n1C [Compound P23, 2-[5-(cyclopropylmethoxy)-3-ethylsulfanyl-2-pyridyl]-3-methyl-6-(trifluoromethyl)imidazo[4,5-c]pyridine]	≥ 80	≥ 80			≥ 80
CCS(=O)(=O)c1cc(OCC2(C)COC2)cnc1-c1nc2cc(C(F)(F)F)ncc2n1C [Compound P54, 2-[3-ethylsulfonyl-5-[(3-methyloxetan-3-yl)methoxy]-2-pyridyl]-3-methyl-6-(trifluoromethyl)imidazo[4,5-c]pyridine]		≥ 80	≥ 80	≥ 80	
CCS(=O)(=O)c1cc(OCS(C)(=N)=O)cnc1-c1nc2cc(C(F)(F)F)ncc2n1C (stereo not shown) [Compound P80, [5-ethylsulfonyl-6-[3-methyl-6-(trifluoromethyl)imidazo[4,5-c]pyridin-2-yl]-3-pyridyl]oxymethyl-imino-methyl-oxo-$|^6-sulfane]		≥ 80	≥ 80	≥ 80	
CCS(=O)(=O)c1cc(OC(C)(C)C(=O)N(C)C)cnc1-c1nc2cc(C(F)(F)F)ncc2n1C [Compound P59, 2-[[5-ethylsulfonyl-6-[3-methyl-6-(trifluoromethyl)imidazo[4,5-c]pyridin-2-yl]-3-pyridyl]oxy]-N,N,2-trimethyl-propanamide]			≥ 80		
CCSc1cc(OC2COC2)cnc1-c1nc2cc(C(F)(F)F)ncc2n1C [Compound P2, 2-[3-ethylsulfanyl-5-(oxetan-3-yloxy)-2-pyridyl]-3-methyl-6-(trifluoromethyl)imidazo[4,5-c]pyridine]				≥ 80	≥ 80
C=CCOc1cnc(-c2nc3cc(C(F)(F)F)ncc3n2C)c(SCC)c1 [Compound P95, 2-(5-allyloxy-3-ethylsulfanyl-2-pyridyl)-3-methyl-6-(trifluoromethyl)imidazo[4,5-c]pyridine]					≥ 80
C#CCOc1cnc(-c2nc3cc(C(F)(F)F)ncc3n2C)c(SCC)c1 [Compound P17, 2-(3-ethylsulfanyl-5-prop-2-ynoxy-2-pyridyl)-3-methyl-6-(trifluoromethyl)imidazo[4,5-c]pyridine]					≥ 80
CCS(=O)(=O)c1cc(OC(C)(C)C(=O)NC)cnc1-c1nc2cc(C(F)(F)F)ncc2n1C [Compound P55, 2-[[5-ethylsulfonyl-6-[3-methyl-6-(trifluoromethyl)imidazo[4,5-c]pyridin-2-yl]-3-pyridyl]oxy]-N,2-dimethyl-propanamide]		≥ 80	≥ 80		
CCSc1cc(OC(C#N)(CC)CC)cnc1-c1nc2cc(C(F)(F)F)ncc2n1C [Compound P43, 2-ethyl-2-[[5-ethylsulfanyl-6-[3-methyl-6-(trifluoromethyl)imidazo[4,5-c]pyridin-2-yl]-3-pyridyl]oxy]butanenitrile]				≥ 80	
CCS(=O)(=O)c1cc(OS(=O)(=O)C(F)F)cnc1-c1nc2cc(C(F)(F)F)ncc2n1C [Compound P91, [5-ethylsulfonyl-6-[3-methyl-6-(trifluoromethyl)imidazo[4,5-c]pyridin-2-yl]-3-pyridyl] difluoromethanesulfonate]					≥ 80
CCS(=O)(=O)c1cc(OC(C)(C)CS(C)(=O)=O)cnc1-c1nc2cc(C(F)(F)F)ncc2n1C [Compound P49, 2-[5-(1,1-dimethyl-2-methylsulfonyl-ethoxy)-3-ethylsulfonyl-2-pyridyl]-3-methyl-6-(trifluoromethyl)imidazo[4,5-c]pyridine]	≥ 80	≥ 80	≥ 80	≥ 80	
CCS(=O)(=O)c1cc(OCc2ccccc2)cnc1-c1nc2cc(C(F)(F)F)ncc2n1C [Compound P94, 2-(5-benzyloxy-3-ethylsulfonyl-2-pyridyl)-3-methyl-6-(trifluoromethyl)imidazo[4,5-c]pyridine]					≥ 80
CCS(=O)(=O)c1cc(OC(C(=O)N(C)C)S(C)(=O)=O)cnc1-c1nc2cc(C(F)(F)F)ncc2n1C (stereo not shown) [Compound P38, 2-[[5-ethylsulfonyl-6-[3-methyl-6-(trifluoromethyl)imidazo[4,5-c]pyridin-2-yl]-3-pyridyl]oxy]-N,N-dimethyl-2-methylsulfonyl-acetamide]			≥ 80		
CCS(=O)(=O)c1cc(OC(SC)C(=O)NC)cnc1-c1nc2cc(C(F)(F)F)ncc2n1C (stereo not shown) [Compound P37, 2-[[5-ethylsulfonyl-6-[3-methyl-6-(trifluoromethyl)imidazo[4,5-c]pyridin-2-yl]-3-pyridyl]oxy]-N-methyl-2-methylsulfanyl-acetamide]		≥ 80		≥ 80	
CCS(=O)(=O)c1cc(OC(SC)C(=O)N(C)C)cnc1-c1nc2cc(C(F)(F)F)ncc2n1C (stereo not shown) [Compound P36, 2-[[5-ethylsulfonyl-6-[3-methyl-6-(trifluoromethyl)imidazo[4,5-c]pyridin-2-yl]-3-pyridyl]oxy]-N,N-dimethyl-2-methylsulfanyl-acetamide]				≥ 80	
CCS(=O)(=O)c1cc(OCCS(C)(=O)=O)ccc1-c1nc2cc(C(F)(F)F)ncc2n1C [Compound P102, 2-[2-ethylsulfonyl-4-(2-methylsulfonylethoxy)phenyl]-3-methyl-6-(trifluoromethyl)imidazo[4,5-c]pyridine]		≥ 80	≥ 80	≥ 80	
CCS(=O)(=O)c1cc(OC(F)(F)CBr)cnc1-c1nc2cc(C(F)(F)F)ncc2n1C [Compound P109, 2-[5-(2-bromo-1,1-difluoro-ethoxy)-3-ethylsulfonyl-2-pyridyl]-3-methyl-6-(trifluoromethyl)imidazo[4,5-c]pyridine]	≥ 80				
CCSc1cc(OC2(C)COC2)cnc1-c1nc2cc(C(F)(F)F)ncc2n1C [Compound P14, 2-[3-ethylsulfanyl-5-(3-methyloxetan-3-yl)oxy-2-pyridyl]-3-methyl-6-(trifluoromethyl)imidazo[4,5-c]pyridine]	≥ 80				≥ 80
CCS(=O)(=O)c1cc(OCC(=O)N(C)C)cnc1-c1nc2cc(C(F)(F)F)ncc2n1C [Compound P51, 2-[[5-ethylsulfonyl-6-[3-methyl-6-(trifluoromethyl)imidazo[4,5-c]pyridin-2-yl]-3-pyridyl]oxy]-N,N-dimethyl-acetamide]			≥ 80	≥ 80	
CCS(=O)(=O)c1cc(OC/C(C)=N/OC)cnc1-c1nc2cc(C(F)(F)F)ncc2n1C [Compound P64, 1-[[5-ethylsulfonyl-6-[3-methyl-6-(trifluoromethyl)imidazo[4,5-c]pyridin-2-yl]-3-pyridyl]oxy]-N-methoxy-propan-2-imine]	≥ 80	≥ 80		≥ 80	
